Experimental data reported in patent US20070128217A1 (priority 2003, published 2007).

Tests used:
[1] = tested on: antibodies in sera from SARS patients (sera 1a, 1b, 2, 6, 37, 62, London, SARS-yellow, SARS-green); format: binding, human; parameters: Binding of serum 6 to linear peptides of protein X1 of SARS-CoV Urbani / Binding of serum 37 to linear peptides of protein X1 of SARS-CoV Urbani / Binding of serum 6 to looped/cyclic peptide (PEPSCAN-ELISA) / Binding of serum 37 to looped/cyclic peptide (PEPSCAN-ELISA) / Binding of serum 37 to looped/cyclic peptides of protein X1 of SARS-CoV Urbani / Binding of serum 6 to linear peptides of protein X2 / Binding of serum 37 to linear peptides of protein X2 / Binding of serum 37 to looped/cyclic peptides of protein X2 of SARS-CoV Urbani / Binding of serum 6 to linear peptides of protein M of SARS-CoV Urbani / Binding of serum 37 to linear peptides of protein M of SARS-CoV Urbani / Binding of serum 6 to looped/cyclic peptides of protein M of SARS-CoV Urbani / Binding of serum 37 to looped/cyclic peptides of protein M of SARS-CoV Urbani / Binding of serum 6 to linear peptides of protein X3 of SARS-CoV Urbani / Binding of serum 37 to linear peptides of protein X3 of SARS-CoV Urbani / Binding of serum 37 to looped/cyclic peptides of protein X3 of SARS-CoV Urbani / Binding of serum 6 to linear peptides of protein X4 of SARS-CoV Urbani / Binding of serum 37 to linear peptides of protein X4 of SARS-CoV Urbani / Binding of serum 37 to looped/cyclic peptides of protein X4 of SARS-CoV Urbani / Binding of serum 6 to linear peptides of protein X5 of SARS-CoV Urbani / Binding of serum 37 to linear peptides of protein X5 of SARS-CoV Urbani / Binding of serum 37 to looped/cyclic peptides of protein X5 of SARS-CoV Urbani / Binding of serum 6 to linear peptides of protein N of SARS-CoV Urbani / Binding of serum 37 to linear peptides of protein N of SARS-CoV Urbani / Binding of serum 6 to linear peptide (PEPSCAN-ELISA) / Binding of serum 1a to looped/cyclic peptides of protein N of SARS-CoV Urbani / Binding of serum 1b to looped/cyclic peptides of protein N of SARS-CoV Urbani / Binding of serum 2 to looped/cyclic peptides of protein N of SARS-CoV Urbani / Binding of serum 6 to looped/cyclic peptides of protein N of SARS-CoV Urbani / Binding of serum 37 to looped/cyclic peptides of protein N of SARS-CoV Urbani / Binding of serum 62 to looped/cyclic peptides of protein N of SARS-CoV Urbani / Binding of serum London to looped/cyclic peptides of protein N of SARS-CoV Urbani / Binding of serum SARS-green to looped/cyclic peptides of protein N of SARS-CoV Urbani: unit not given here
[2] = tested on: control sera (pooled serum of ten healthy LUMC hospital workers; commercial negative donor pooled serum from the Dutch bloodbank); format: binding, human; parameters: Binding of Control serum LUMC to linear peptides / Binding of Control serum Blood-bank to linear peptides / Binding of Control serum LUMC to looped peptides / Binding of Control Serum Blood-Bank to Looped peptides / Binding of Control serum LUMC to linear peptides of the protein M of SARS-CoV Urbani / Binding of Control serum Blood-bank to linear peptides of the protein M of SARS-CoV Urbani / Binding of Control serum LUMC to looped peptides of the protein M of SARS-CoV Urbani / Binding of Control Serum Blood-Bank to Looped peptides of the protein M of SARS-CoV Urbani: unit not given here
[3] = tested on: rabbit serum obtained by immunizing a rabbit with the SARS-CoV strain Frankfurt 1; format: binding; parameters: Binding of a rabbit serum to linear peptides / Binding of a rabbit serum to looped peptides / Rabbit serum linear peptides / Rabbit serum looped peptides / Binding of a rabbit serum to linear peptides of protein N of SARS-CoV Urbani (Rabbit serum linear peptides) / Binding of a rabbit serum to looped/cyclic peptides of protein N of SARS-CoV Urbani (Rabbit serum looped peptides): unit not given here
[4] = tested on: recombinant human anti-SARS-CoV antibody 03-018; format: binding; parameters: Binding of antibody 03-018 to linear peptides of the N protein of SARS-CoV Urbani / Binding of antibody 03-018 to looped/cyclic peptides of the N protein of SARS-CoV Urbani: unit not given here

| Sequence | Binding of serum 1a to linear peptides of protein N of SARS-CoV Urbani [1] | Binding of serum 1a to looped/cyclic peptides of protein N of SARS-CoV Urbani [1] | Binding of serum 1b to linear peptides of protein N of SARS-CoV Urbani [1] | Binding of serum 1b to looped/cyclic peptides of protein N of SARS-CoV Urbani [1] | Binding of serum 2 to linear peptides of protein N of SARS-CoV Urbani [1] | Binding of serum 2 to looped/cyclic peptides of protein N of SARS-CoV Urbani [1] | Binding of serum 6 to linear peptides of protein N of SARS-CoV Urbani [1] | Binding of serum 6 to looped/cyclic peptides of protein N of SARS-CoV Urbani [1] | Binding of serum 37 to linear peptides of protein N of SARS-CoV Urbani [1] | Binding of serum 37 to looped/cyclic peptides of protein N of SARS-CoV Urbani [1] | Binding of serum 62 to linear peptides of protein N of SARS-CoV Urbani [1] | Binding of serum 62 to looped/cyclic peptides of protein N of SARS-CoV Urbani [1] | Binding of serum London to linear peptides of protein N of SARS-CoV Urbani [1] | Binding of serum London to looped/cyclic peptides of protein N of SARS-CoV Urbani [1] | Binding of serum SARS-green to linear peptides of protein N of SARS-CoV Urbani [1] | Binding of serum SARS-green to looped/cyclic peptides of protein N of SARS-CoV Urbani [1] | Binding of serum SARS-yellow to linear peptides of protein N of SARS-CoV Urbani [1] | Binding of serum SARS-yellow to looped/cyclic peptides of protein N of SARS-CoV Urbani [1] | Binding of antibody 03-018 to linear peptides of the N protein of SARS-CoV Urbani [4] | Binding of antibody 03-018 to looped/cyclic peptides of the N protein of SARS-CoV Urbani [4] | also measured |
| --- | --- | --- | --- | --- | --- | --- | --- | --- | --- | --- | --- | --- | --- | --- | --- | --- | --- | --- | --- | --- | --- |
| DNVILLNKHIDAYKT | 0.2 | 0.4 | 0.1 | 0.3 | 0.2 | 0.4 | 0.1 | 0.2 | 0.6 | 0.7 | 0.6 | 0.7 | 0.5 | 0.5 | 0.2 | 0.3 | 0.6 | 0.8 | 0.1 | 0.2 | Control Serum Blood-Bank Looped peptides [2]: 0.7; Control serum Blood-bank linear peptides [2]: 0.5; Control serum LUMC linear peptides [2]: 0.6; Control serum LUMC looped peptides [2]: 0.7; Binding of a rabbit serum to linear peptides of protein N of SARS-CoV Urbani (Rabbit serum linear peptides) [3]: 0.1; Binding of a rabbit serum to looped/cyclic peptides of protein N of SARS-CoV Urbani (Rabbit serum looped peptides) [3]: 0.6 |
| QYNVTQAFGRRGPEQ |  | 0.4 |  | 0.2 |  | 0.4 |  | 0.4 |  | 0.7 |  | 0.6 |  | 0.5 |  | 0.4 |  | 0.5 | 0.1 | 0.3 | Binding of serum 1a to linear peptide (PEPSCAN-ELISA) [1]: 0.3; Binding of serum 1b to linear peptide (PEPSCAN-ELISA) [1]: 0.1; Binding of serum 2 to linear peptide (PEPSCAN-ELISA) [1]: 0.1; Binding of serum 6 to linear peptide (PEPSCAN-ELISA) [1]: 0.2; Binding of serum 37 to linear peptide (PEPSCAN-ELISA) [1]: 0.6; Binding of serum 62 to linear peptide (PEPSCAN-ELISA) [1]: 0.6; Binding of serum London to linear peptide (PEPSCAN-ELISA) [1]: 0.4; Binding of serum SARS-green to linear peptide (PEPSCAN-ELISA) [1]: 0.5; Binding of serum SARS-yellow to linear peptide (PEPSCAN-ELISA) [1]: 0.6; Binding of Control Serum Blood-Bank to Looped peptides [2]: 0.8; Binding of Control serum Blood-bank to linear peptides [2]: 0.7; Binding of Control serum LUMC to linear peptides [2]: 0.6; Binding of Control serum LUMC to looped peptides [2]: 0.8; Recognition of the peptide by the rabbit serum [3]: recognized |
| PPTEPKKDKKKKTDE | 0.2 | 0.2 | 0.1 | 0.1 | 2.0 | 0.2 | 0.2 | 0.1 | 0.6 | 0.4 | 0.7 | 0.2 | 0.5 | 0.2 | 0.3 | 0.0 | 0.6 | 0.2 | 0.1 | 0.2 | Control Serum Blood-Bank Looped peptides [2]: 0.4; Control serum Blood-bank linear peptides [2]: 0.6; Control serum LUMC linear peptides [2]: 0.7; Control serum LUMC looped peptides [2]: 0.3; Binding of a rabbit serum to linear peptides of protein N of SARS-CoV Urbani (Rabbit serum linear peptides) [3]: 0.2; Binding of a rabbit serum to looped/cyclic peptides of protein N of SARS-CoV Urbani (Rabbit serum looped peptides) [3]: 0.2 |
| GGDGKMKELSPRWYF | 0.3 | 0.3 | 0.1 | 0.2 | 0.2 | 0.6 | 0.2 | 0.3 | 0.6 | 0.6 | 0.7 | 0.6 | 0.4 | 0.5 | 0.2 | 0.5 | 0.7 | 0.6 | 0.1 | 0.2 | Binding of Control Serum Blood-Bank to Looped peptides [2]: 0.8; Binding of Control serum Blood-bank to linear peptides [2]: 0.8; Binding of Control serum LUMC to linear peptides [2]: 0.7; Binding of Control serum LUMC to looped peptides [2]: 0.7; Binding of a rabbit serum to linear peptides of protein N of SARS-CoV Urbani (Rabbit serum linear peptides) [3]: 0.1; Binding of a rabbit serum to looped/cyclic peptides of protein N of SARS-CoV Urbani (Rabbit serum looped peptides) [3]: 0.5 |
